Laboratory results from PubChem BioAssay (NCI).
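In this assay, cells in 96-well plates receive the compound at five concentrations for 48 hours. Endpoints are linearly interpolated between the surrounding concentrations. GI50 marks 50% less growth. TGI denotes the concentration required for complete inhibition of growth.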

Experiments:
Assay in all cases: NCI tumour cell line growth inhibition, 48 h
OVCAR-8 ovarian = test system: OVCAR-8 ovarian
ACHN renal = test system: ACHN renal
UACC-257 melanoma = test system: UACC-257 melanoma
MOLT-4 leukemia = test system: MOLT-4 leukemia
HOP-92 NSCLC = test system: HOP-92 NSCLC
SNB-19 CNS = test system: SNB-19 CNS
HCT-116 colon = test system: HCT-116 colon
NCI-H23 lung = test system: NCI-H23 lung
T-47D breast = test system: T-47D breast
MDA-MB-231 breast = test system: MDA-MB-231 breast
HT29 colon = test system: HT29 colon
SN12C renal = test system: SN12C renal
SR leukemia = test system: SR leukemia
LOX IMVI melanoma = test system: LOX IMVI melanoma
TK-10 renal = test system: TK-10 renal
A549 NSCLC = test system: A549 NSCLC
BT-549 breast = test system: BT-549 breast
SW-620 colon = test system: SW-620 colon
A498 renal = test system: A498 renal
M14 melanoma = test system: M14 melanoma
SF-539 CNS = test system: SF-539 CNS
OVCAR-3 ovarian = test system: OVCAR-3 ovarian
HOP-62 NSCLC = test system: HOP-62 NSCLC
KM12 colon = test system: KM12 colon
PC-3 prostate = test system: PC-3 prostate
SK-MEL-2 melanoma = test system: SK-MEL-2 melanoma
RPMI-8226 leukemia = test system: RPMI-8226 leukemia
SF-295 CNS = test system: SF-295 CNS
NCI-H522 lung = test system: NCI-H522 lung
MDA-MB-435 = test system: MDA-MB-435
SK-OV-3 ovarian = test system: SK-OV-3 ovarian
UO-31 renal = test system: UO-31 renal
SNB-75 CNS = test system: SNB-75 CNS
DU-145 prostate = test system: DU-145 prostate
OVCAR-4 ovarian = test system: OVCAR-4 ovarian
NCI-H460 lung = test system: NCI-H460 lung
HCC-2998 colon = test system: HCC-2998 colon
SF-268 CNS = test system: SF-268 CNS
NCI/ADR-RES ovarian = test system: NCI/ADR-RES ovarian
CAKI-1 renal = test system: CAKI-1 renal
IGROV1 ovarian = test system: IGROV1 ovarian
RXF 393 renal = test system: RXF 393 renal
SK-MEL-28 melanoma = test system: SK-MEL-28 melanoma
OVCAR-5 ovarian = test system: OVCAR-5 ovarian
MALME-3M melanoma = test system: MALME-3M melanoma
COLO 205 colon = test system: COLO 205 colon
HS 578T breast = test system: HS 578T breast
CCRF-CEM leukemia = test system: CCRF-CEM leukemia
HCT-15 colon = test system: HCT-15 colon
U251 CNS = test system: U251 CNS
K-562 leukemia = test system: K-562 leukemia
786-0 renal = test system: 786-0 renal
UACC-62 melanoma = test system: UACC-62 melanoma
NCI-H226 lung = test system: NCI-H226 lung
MCF7 breast = test system: MCF7 breast
HL-60(TB) leukemia = test system: HL-60(TB) leukemia
SK-MEL-5 melanoma = test system: SK-MEL-5 melanoma

## COc1cc(-c2cc(/C=C3\C(=O)Nc4ccc(Cl)cc43)[nH]n2)cc(OC)c1OC
OVCAR-8 ovarian
  GI50: 4.31 µM
  TGI: > 100 µM
ACHN renal
  GI50: 3.46 µM
  TGI: 15.2 µM
UACC-257 melanoma
  GI50: 2.7 µM
  TGI: 11.6 µM
MOLT-4 leukemia
  GI50: 2.7 µM
  TGI: 8.87 µM
HOP-92 NSCLC
  GI50: 1.45 µM
  TGI: 16.8 µM
SNB-19 CNS
  GI50: 5.04 µM
  TGI: > 100 µM
HCT-116 colon
  GI50: 4.7 µM
  TGI: 69.3 µM
NCI-H23 lung
  GI50: 4.95 µM
  TGI: > 100 µM
T-47D breast
  GI50: 2.6 µM
  TGI: 18.3 µM
MDA-MB-231 breast
  GI50: 4.41 µM
  TGI: > 100 µM
HT29 colon
  GI50: 7.54 µM
  TGI: 45.1 µM
SN12C renal
  GI50: 5.72 µM
  TGI: > 100 µM
SR leukemia
  GI50: 3.06 µM
  TGI: 12.7 µM
LOX IMVI melanoma
  GI50: 3.45 µM
  TGI: 22.7 µM
TK-10 renal
  GI50: 8.15 µM
  TGI: 92.7 µM
A549 NSCLC
  GI50: 7.08 µM
  TGI: > 100 µM
BT-549 breast
  GI50: 2.52 µM
  TGI: 7.16 µM
SW-620 colon
  GI50: 6.1 µM
  TGI: > 100 µM
A498 renal
  GI50: 1.07 µM
  TGI: 7.24 µM
M14 melanoma
  GI50: 3.09 µM
  TGI: 14 µM
SF-539 CNS
  GI50: 6.7 µM
  TGI: 26.3 µM
OVCAR-3 ovarian
  GI50: 6.16 µM
  TGI: 71.6 µM
HOP-62 NSCLC
  GI50: 5.14 µM
  TGI: > 100 µM
KM12 colon
  GI50: 3.3 µM
  TGI: > 100 µM
PC-3 prostate
  GI50: 2.51 µM
  TGI: 18.9 µM
SK-MEL-2 melanoma
  GI50: 3.52 µM
  TGI: 21 µM
RPMI-8226 leukemia
  GI50: 1.88 µM
  TGI: 4.81 µM
SF-295 CNS
  GI50: 3.96 µM
  TGI: 34.4 µM
NCI-H522 lung
  GI50: 3.12 µM
  TGI: 14.5 µM
MDA-MB-435
  GI50: 3.97 µM
  TGI: > 100 µM
SK-OV-3 ovarian
  GI50: 49.3 µM
  TGI: > 100 µM
UO-31 renal
  GI50: 2.81 µM
  TGI: 23.6 µM
SNB-75 CNS
  GI50: 3.44 µM
  TGI: 27.9 µM
DU-145 prostate
  GI50: 9.54 µM
  TGI: > 100 µM
OVCAR-4 ovarian
  GI50: 5.11 µM
  TGI: > 100 µM
NCI-H460 lung
  GI50: 5.03 µM
  TGI: > 100 µM
HCC-2998 colon
  GI50: 64 µM
  TGI: > 100 µM
SF-268 CNS
  GI50: 35.3 µM
  TGI: > 100 µM
NCI/ADR-RES ovarian
  GI50: 3.73 µM
  TGI: > 100 µM
CAKI-1 renal
  GI50: 2.82 µM
  TGI: 20.5 µM
IGROV1 ovarian
  GI50: 6.34 µM
  TGI: > 100 µM
RXF 393 renal
  GI50: 9.21 µM
  TGI: > 100 µM
SK-MEL-28 melanoma
  GI50: 7.37 µM
  TGI: 72.4 µM
OVCAR-5 ovarian
  GI50: 27.9 µM
  TGI: > 100 µM
MALME-3M melanoma
  GI50: 2.71 µM
  TGI: 8.63 µM
COLO 205 colon
  GI50: 2.92 µM
  TGI: 14.9 µM
HS 578T breast
  GI50: 5.03 µM
  TGI: > 100 µM
CCRF-CEM leukemia
  GI50: 3.02 µM
  TGI: 26.7 µM
HCT-15 colon
  GI50: 3.6 µM
  TGI: > 100 µM
U251 CNS
  GI50: 5.37 µM
  TGI: > 100 µM
K-562 leukemia
  GI50: 4.05 µM
  TGI: > 100 µM
786-0 renal
  GI50: 15.2 µM
  TGI: > 100 µM
UACC-62 melanoma
  GI50: 1.73 µM
  TGI: 3.9 µM
NCI-H226 lung
  GI50: 3.84 µM
  TGI: 26.5 µM
MCF7 breast
  GI50: 3.15 µM
  TGI: > 100 µM
HL-60(TB) leukemia
  GI50: 2.26 µM
  TGI: 6.82 µM
SK-MEL-5 melanoma
  GI50: 1.46 µM
  TGI: 3.22 µM
